Experimental data from US5229395A, “Potential anticancer agents derived from acridine” (Sloan-Kettering Institute For Cancer Research, priority 1991, dated 1993).

Test system: DNA
Experiment: not given
Settings: Denny and Wakelin, Cancer Res., 46:1717 (1986); cited from earlier work

SMILES | intercalation into DNA
COc1cc(NS(C)(=O)=O)ccc1Nc1c2ccccc2nc2ccccc12 [amsacrin] | reversible

Test system: mouse leukemic cells L1210
Experiment: not given
Settings: earlier work, U.S. Pat. No. 4,966,918; cited from earlier work

SMILES | activity against mouse leukemic cells L1210 in tissue culture
Cc1cc(O)c2c(c1)C(=O)c1cc(O)cc(O)c1C2=O [Compound 1B, emodin] | practically inactive
O=C1c2cccc(O)c2C(=O)c2c(O)cc(CN(CCCl)CCCl)cc21 [Compound 3A, 3-[N,N-bis(2-chloroethyl)-amino]methyl-1,8-dihydroxy-9,10-anthraquinone] | potent inhibitory activity
COc1cc(O)c2c(c1)C(=O)c1cc(CN(CCCl)CCCl)cc(O)c1C2=O [Compound 3B] | potent inhibitory activity
Cc1cc(O)c2c(c1)C(=O)c1cccc(O)c1C2=O [Compound 1A, chrysophanol] | practically inactive

Test system: L1210 cells
Experiment: In vivo antileukemic effect (increased life span) in female BDF1 mice inoculated with L1210 cells
Settings: 100 mg/kg; mice inoculated with 1.0×10^6 L1210 cells
Procedure: On the other hand, the corresponding methyl carbamate ester IVc gave good ILS values of 71% and >250% at the dose levels of 100 and 200 mg/kg, respectively.

SMILES | ILS (increased life span) [%]
CNC(=O)OCc1cccc(Nc2c3ccccc3nc3ccccc23)c1 [IVc, 9-[3'-(Methylaminocarbonyloxymethyl)anilino]acridine] | 71

Same assay, conditions: 200 mg/kg; mice inoculated with 1.0×10^6 L1210 cells

SMILES | ILS (increased life span) [%]
CNC(=O)OCc1cccc(Nc2c3ccccc3nc3ccccc23)c1 [IVc, 9-[3'-(Methylaminocarbonyloxymethyl)anilino]acridine] | > 250

Same assay, conditions: 100 and 150 mg/kg dose level; female BDF1 mice inoculated with 1.0×10^6 L1210 cells

SMILES | ILS (increased life span) [%]
OCc1ccc(Nc2c3ccccc3nc3ccccc23)cc1 [IIIc, 9-(4'-Hydroxymethyl)anilinoacridine] | 29

Test system: topoisomerse II
Experiment: not given
Settings: Nelson et al. 1984; Pommier et al. 1984; cited from earlier work

SMILES | DNA cleavage mediated by topoisomerse II
COc1cc(NS(C)(=O)=O)ccc1Nc1c2ccccc2nc2ccccc12 [amsacrin] | appears to induce DNA cleavage

Test system: mouse leukemia L1210 cells
Experiment: Inhibitory activity against growth of mouse leukemia L1210 cells in vitro
Type: cell-based
Settings: Mus musculus, L1210; quoted in text from Table 6; read-out: IC50 value

SMILES | IC50 [nM]
OCc1ccc(Nc2c3ccccc3nc3ccccc23)cc1 [IIIc, 9-(4'-Hydroxymethyl)anilinoacridine] | 95

Same assay, conditions: Table 6, acridine derivatives of formula III, growth of mouse leukemia L1210 cells; read-out: IC50

SMILES | IC50 [nM]
OCc1cccc(Nc2c3ccccc3nc3ccccc23)c1 [IIIb, 9-(3'-Hydroxymethyl)anilinoacridine] | 14
COc1ccc2nc3ccc(OC)cc3c(Nc3cccc(CO)c3)c2c1 [IIIm, 9-(3'-Hydroxymethyl)anilino-2,7-dimethoxyacridine] | 3400
OCCc1ccc(Nc2c3ccccc3nc3ccccc23)cc1 [IIIf] | 9.9
Cc1ccc2nc3ccccc3c(Nc3ccc(CO)cc3)c2c1 [IIIo, 9-(4'-Hydroxymethyl)anilino-2-methylacridine] | 120
COc1ccc2nc3ccccc3c(Nc3ccc(CO)cc3)c2c1 [IIIq, 9-(4'-Hydroxymethyl)anilino-2-methoxyacridine] | 620
COc1ccc2nc3ccc(C)cc3c(Nc3cccc(CO)c3)c2c1 [IIIk, 9-(3'-Hydroxymethyl)anilino-2-methoxy-7-methylacridine] | 5800
COc1ccc2nc3ccc(C)cc3c(Nc3ccc(CO)cc3)c2c1 [IIIs, 9-(4'-Hydroxymethyl)anilino-2-methoxy-7-methylacridine] | 58
Cc1ccc2c(Nc3cccc(CO)c3)c3ccccc3nc2c1 [IIIh, 9-(3'-Hydroxymethyl)anilino-3-methylacridine] | 0.39
Cc1ccc2c(Nc3ccc(CO)cc3)c3ccccc3nc2c1 [IIIp, 9-(4'-Hydroxymethyl)anilino-3-methylacridine] | 6.7
OCCc1cccc(Nc2c3ccccc3nc3ccccc23)c1 [IIIe] | 6.2
OCc1ccccc1Nc1c2ccccc2nc2ccccc12 [IIIa, 9-(2'-Hydroxymethyl)anilinoacridine] | 43000
COc1ccc2c(Nc3ccc(CO)cc3)c3ccccc3nc2c1 [IIIr, 9-(4'-Hydroxymethyl)anilino-3-methoxyacridine] | 29
COc1ccc2c(Nc3cccc(CO)c3)c3ccccc3nc2c1 [IIIj, 9-(3'-Hydroxymethyl)anilino-3-methoxyacridine] | 0.063
Cc1ccc2nc3ccccc3c(Nc3cccc(CO)c3)c2c1 [IIIg, 9-(3'-Hydroxymethyl)anilino-2-methylacridine] | 850
COc1ccc2c(Nc3ccc(CCO)cc3)c3ccccc3nc2c1 [IIIv] | 18
OCCc1ccccc1Nc1c2ccccc2nc2ccccc12 [IIId] | 6500
COc1ccc2nc3cc(C)ccc3c(Nc3cccc(CO)c3)c2c1 [IIIl, 9-(3'-Hydroxymethyl)anilino-2-methoxy-6-methylacridine] | 920
OCc1ccc(Nc2c3ccccc3nc3ccccc23)cc1 [IIIc, 9-(4'-Hydroxymethyl)anilinoacridine] | 95
COc1ccc2nc3ccc(OC)cc3c(Nc3ccc(CCO)cc3)c2c1 [IIIw] | 690
COc1ccc2nc3ccc(OC)cc3c(Nc3ccc(CO)cc3)c2c1 [IIIu, 9-(4'-Hydroxymethyl)anilino-2,7-dimethoxyacridine] | 3400
COc1ccc2c(Nc3cccc(CCO)c3)c3ccccc3nc2c1 [IIIn, 9-[3'-(β-hydroxyethyl)anilino]-3-methoxyacridine] | 0.023
COc1ccc2nc3ccccc3c(Nc3cccc(CO)c3)c2c1 [IIIi, 9-(3'-Hydroxymethyl)anilino-2-methoxyacridine] | 3500
COc1ccc2nc3cc(C)ccc3c(Nc3ccc(CO)cc3)c2c1 [IIIt, 9-(4'-Hydroxymethyl)anilino-2-methoxy-6-methylacridine] | 650

Same assay, conditions: Table 7, carbamate esters of formula IV, mouse L1210 cells in vitro; read-out: IC50

SMILES | IC50 [nM]
COc1ccc2c(Nc3cccc(COC(=O)NC(C)C)c3)c3ccccc3nc2c1 [IVl, 9-[3'-(Isopropylaminocarbonyloxymethyl)anilino]-3-methoxyacridine] | 890
CC(C)NC(=O)OCc1ccc(Nc2c3ccccc3nc3ccccc23)cc1 [IVf, 9-[4'-(Isopropylaminocarbonyloxymethyl)anilino]acridine] | 18
CNC(=O)OCc1cccc(Nc2c3cc(OC)ccc3nc3ccc(OC)cc23)c1 [IVm, 9-[3'-(Methylaminocarbonyloxymethyl)anilino]-2,7-dimethoxyacridine] | 5000
CNC(=O)OCc1ccccc1Nc1c2ccccc2nc2ccccc12 [IVa, 9-[2'-(Methylaminocarbonyloxymethyl)anilino]acridine] | 8400
CC(C)NC(=O)OCCc1ccc(Nc2c3ccccc3nc3ccccc23)cc1 [IVj, 9-[4'-(β-Isopropylaminocarbonyloxyethyl)anilino]acridine] | 48
CNC(=O)OCc1cccc(Nc2c3ccccc3nc3ccccc23)c1 [IVc, 9-[3'-(Methylaminocarbonyloxymethyl)anilino]acridine] | 4600
CNC(=O)OCc1cccc(Nc2c3ccccc3nc3cc(OC)ccc23)c1 [IVk, 9-[3'-(Methylaminocarbonyloxymethyl)anilino]-3-methoxyacridine] | 1700
CNC(=O)OCCc1ccc(Nc2c3ccccc3nc3ccccc23)cc1 [IVi, 9-[4'-(β-Methylaminocarbonyloxyethyl)anilino]acridine] | 3.9
COc1ccc2nc3ccc(OC)cc3c(Nc3ccc(COC(=O)NC(C)C)cc3)c2c1 [IVp, 9-[4'-(Isopropylaminocarbonyloxymethyl)anilino]-2,7-dimethoxyacridine] | 6600
COc1ccc2nc3ccc(OC)cc3c(Nc3cccc(COC(=O)NC(C)C)c3)c2c1 [IVn, 9-[3'-(isopropylaminocarbonyloxymethyl)-anilino]-2,7-dimethoxyacridine] | 4000
CNC(=O)OCCc1cccc(Nc2c3ccccc3nc3ccccc23)c1 [IVg, 9-[3'-(β-Methylaminocarbonyloxyethyl)anilino]acridine] | 5700
CC(C)NC(=O)OCc1ccccc1Nc1c2ccccc2nc2ccccc12 [IVb, 9-[2'-(Isopropylaminocarbonyloxymethyl)anilino]acridine] | 9300
CC(C)NC(=O)OCc1cccc(Nc2c3ccccc3nc3ccccc23)c1 [IVd, 9-[3'-(Isopropylaminocarbonyloxymethyl)anilino]acridine] | 9.1
CNC(=O)OCc1ccc(Nc2c3ccccc3nc3ccccc23)cc1 [IVe, 9-[4'-(Methylaminocarbonyloxymethyl)anilino]acridine] | 38
CNC(=O)OCc1ccc(Nc2c3cc(OC)ccc3nc3ccc(OC)cc23)cc1 [IVo, 9-[4'-(Methylaminocarbonyloxymethyl)anilino]-2,7-dimethoxyacridine] | 3600
CC(C)NC(=O)OCCc1cccc(Nc2c3ccccc3nc3ccccc23)c1 [IVh, 9-[3'-(β-Isopropylaminocarbonyloxyethyl)anilino]acridine] | 0.91
